This is an account of results in a melting point compilation (Tetko et al.; mined from patent text by program, amines drawn as free bases though some values may be those of a salt).

As usually defined, the melting point is the temperature of the solid-liquid transition.

The molecule `O=C(O)CCCCc1cc(O)c(O)c(Cl)c1` yielded a melting point of 99 to 101 °C.
For `O=S(=O)(Nc1ncnc(Cl)c1Cc1cccc2ccccc12)c1ccc(Cl)cc1`, the melting point fell in the range of 202 to 203 °C.
To `Cc1cccc(C(O)(c2cccc(C)c2)c2cccc(-c3ccc4ccccc4c3)c2)c1` belongs 58 to 60 °C.
Under `CC(=O)c1c(C(=O)N(C)C)[nH]c2ccc(Cl)cc12` stands 150 to 155 °C; under `Cn1c(=O)c2c(ncn2CCCCCCO)n(C)c1=O`, 80 °C; under `CCN1C[C@@H](O)[C@H](Oc2ccc(C(C)=O)cc2OC)C1` (relative stereo), 121 to 123 °C.
`COc1ccc(CN=C(Cc2ccccc2)N2CC3C(=O)CCC(c4ccccc4)(c4ccccc4)C3C2)cc1` (stereo not given): the melting point stood at 158 °C.
As for `Cc1cn(-c2ccc(C(=O)N3Cc4cccn4Cc4ccccc43)cc2)cn1`, the melting point fell in the range of 140 to 145 °C.
With `Cc1ccc(-n2nc(C(F)(F)F)cc2-c2ccc(S(C)(=O)=O)c(F)c2)cc1Cl`, the melting point lay within 144 to 145 °C.
For the molecule `CC(=C1SC(=S)NC1=O)c1ccccc1C(=O)O`, the melting point lay in the range of 193 to 195 °C.
To `COc1ccc2[nH]c(C(N)=O)cc2c1` belongs 204 to 205 °C.
Under `CC#CCOc1ccc(S(=O)(=O)C(C(=O)OCC)C2CCN(C(=O)c3ccccc3)CC2)cc1` (stereo not given) stands 120 °C; under `CCCN1CC(CSC)=C[C@H]2Cc3n[nH]cc3C[C@@H]21` (relative stereo), 133 to 134 °C; under `CCCCP(=O)(C(=O)c1c(OC)cccc1OC)C(=O)c1c(OC)cccc1OC`, 151 to 152 °C.
Under `CC(=O)C(=Cc1cccnc1)C(C)=O` stands 52 to 57 °C.
`CC(C)n1nc(-c2sc(C(=O)NN(C)C)nc2-c2ccc(F)cc2)ccc1=O`: the melting point is 169 to 170 °C.
Under `CNc1ccc([N+](=O)[O-])cc1[N+](=O)[O-]` stands 177 to 178 °C; under `N#CC(N)=C(C#N)N=C=CCc1cnn(-c2c(Cl)cc(C(F)(F)F)cc2Cl)n1`, 207 to 209 °C; under `COc1cccc(CN2CCCc3cc(O)c(OC)cc3C2)c1`, 114 to 115 °C.
For the molecule `CCc1cc(Br)cc2[nH]c(=O)oc(=O)c12`, the melting point was in the range of 208 to 210 °C.
To `Cc1cc(C)c2c(=O)n(CC(=O)N3CCOCC3)sc2n1` belongs 200 to 203 °C; to `COP(=O)(OC)C(O)C(CC1CCCCC1)NC(=O)C(CC(C)C)NC(=O)OC(C)(C)C` (stereo not given), 157 °C; to `Cc1oc(-c2cccc(-c3nc(CCO)c(C)o3)c2)nc1CCO`, 134 to 135 °C.
Under `ClC(Cl)=CCOc1cc(Cl)c(OCc2ccc(Cl)nc2)c(Cl)c1` stands 93.3 °C; under `Nc1cccnc1Nc1ccc(Cl)cc1C(=O)c1ccccc1Cl`, 162 to 164 °C.
Under `COC(=O)c1sc(C)c2ncn(Cc3ccc(-c4ccccc4-c4nnn[nH]4)cc3)c12` stands 188 to 189 °C; under `O=c1cc(-c2ccccc2)sn1-c1nc2ccccc2s1`, 201 to 202 °C.
As for `CC(C)OC(=O)NC(=O)C(c1ccccc1)c1ccccc1`, the melting point was in the range of 122 to 124 °C.
For the molecule `Cc1cccc(Sc2ccc(C(=O)O)s2)c1`, the melting point was 73 to 75 °C.
`Cc1nc(-c2ccccc2)c(C)c(O)c1C(=O)Nc1nccs1` yielded a melting point of 266 °C.
With `COc1cc(COc2ncccc2C#N)ccc1OCc1nc(-c2ccccc2)oc1C`, the melting point was in the range of 117 to 118 °C.
To `CC(C)(C)OCOc1cc(NC(=O)NC(=O)c2ccc(C#N)cc2)ccc1OCC(=O)OC(C)(C)C` belongs 161 to 162 °C; to `CCOC(=O)C1CCc2c1sc(C)c2C(=O)c1ccc(SC)cc1` (stereo not given), 62 to 64 °C; to `NC(=O)c1c(NC(=O)C2CC2)sc2c1CCC(F)(F)C2`, 207 to 208 °C.
To `O=C(O)c1ccc(CCC(=O)c2ccccc2)cc1` belongs 145 to 147 °C.
